{"source": "paper PMC10654507", "about": "“A cleavable chimeric peptide with targeting and killing domains enhances LPS neutralization and antibacterial properties against multi-drug resistant E. coli” (Communications Biology, 2023)", "key": {"furin": {"system": "T1, furin", "T1 construct": "purchased NEB (New England Biolabs) P8077", "experiment": "Cleavage of R7 by furin in vitro (RP-HPLC)", "type": "in vitro ADME", "conditions": "human, recombinant human furin enzyme, furin 8 U/reaction, 25 °C, RP-HPLC peak area, read-out: Cleavage efficiency", "method": "Chimeric peptide R7 was treated with recombinant human furin enzyme (8 U/reaction; NEB P8077) in 50-μL reactions supplemented with in 20 mM HEPES, 0.1% Triton X-100, 1 mM CaCl2, 0.2 mM β-mercaptoethanol. The reaction mixtures were incubated at 25 °C for 65 h. An aliquot of 50 μL sample was taken at different time points, and analyzed by RP-HPLC or MALDI-TOF MS. […] The cleavage rate of R7 was calculated from the peak area as follows: Cleavage rate (%) = [(Area0 –Areat)/Area0] × 100, where 0 and t present digestion time[58]."}, "[1]": {"experiment": "Detection of R7 in mouse blood after injection (RP-HPLC)", "type": "in vivo", "conditions": "R7 10 ~ 50 mg/kg intraperitoneal, intravenous or subcutaneous, blood at 5, 30, 60 and 120 min", "method": "To further study the cleavage efficiency of chimeric peptide R7, the mice were injected with R7 (10 ~ 50 mg/kg) by different routes, including intraperitoneal, intravenous or subcutaneous ones, respectively; blood was taken from the orbits at different time (5, 30, 60, and 120 min, respectively) and detected by RP-HPLC. […] Here are several conditions that may negatively impact RP-HPLC detection results: (i) R7 may bind to other proteins such as plasma protein and form aggregates; (ii) the concentration of R7 after cleavage was too low to detect target peptide by RP-HPLC; (iii) R7 may be degraded by some cellular proteases present in serum in vivo[45]. Furthermore, we used more sensitive liquid chromatograph mass spectrometer (LC-MS) to detect R7 and its possible degradation products in mice. […] We further used MALDI-TOF MS with higher resolution to analyze R7 degradation products in blood. As shown in Supplementary Table 5, R7 was cleaved into two dual-function fragments in the serum principally, including one from position 1 to 15 that can target LPS and the other mainly from position 18 to 35 that has antibacterial activity. […] In addtion, in vivo stability of peptides in blood has been well modeled by ex vivo stability in serum. […] In fact, several strategies have been proposed to improve the stability of AMPs. […]"}}, "note": "Residues, ends and D or L forms follow the SMILES beside them.", "data": [{"smiles": "CSCC[C@H](NC(=O)[C@H](CCCNC(=N)N)NC(=O)[C@H](Cc1c[nH]c2ccccc12)NC(=O)[C@H](C)NC(=O)[C@H](Cc1c[nH]c2ccccc12)NC(=O)[C@H](CCCNC(=N)N)NC(=O)[C@H](Cc1c[nH]c2ccccc12)NC(=O)[C@H](C)NC(=O)[C@H](CCCCN)NC(=O)[C@H](Cc1ccccc1)NC(=O)[C@H](CCCNC(=N)N)NC(=O)[C@H](CCCNC(=N)N)NC(=O)[C@H](CCCCN)NC(=O)[C@H](CCCNC(=N)N)NC(=O)[C@H](CCCCN)NC(=O)[C@H](Cc1ccccc1)NC(=O)[C@H](Cc1ccccc1)NC(=O)[C@H](CO)NC(=O)[C@H](C)NC(=O)[C@H](CCCNC(=N)N)NC(=O)[C@@H](NC(=O)[C@H](CCCCN)NC(=O)[C@H](Cc1c[nH]c2ccccc12)NC(=O)[C@H](CCCNC(=N)N)NC(=O)CNC(=O)[C@H](CCC(N)=O)NC(=O)[C@@H](NC(=O)[C@@H](N)CCCNC(=N)N)C(C)C)C(C)C)C(=O)N[C@@H](CCCCN)C(=O)N[C@@H](CCCCN)C(=O)N[C@@H](CC(C)C)C(=O)N[C@@H](C)C(=O)N[C@@H](C)C(=O)N1CCC[C@H]1C(=O)N[C@@H](CO)C(=O)O", "note": "[R7] (H-RVQGRWKVRASFFKRKRRFKAWRWAWRMKKLAAPS-OH)", "values": [{"measurement": "metabolised at 4 h", "setting": "furin; digestion 4 h", "result": 14.5, "unit": "%"}, {"measurement": "metabolised at 8 h", "setting": "furin; digestion 8 h", "result": 17.8, "unit": "%"}, {"measurement": "metabolised at 18 h", "setting": "furin; digestion 18 h", "result": 29.5, "unit": "%"}, {"measurement": "metabolised at 24 h", "setting": "furin; digestion 24 h", "result": 36.2, "unit": "%"}, {"measurement": "metabolised at 30 h", "setting": "furin; digestion 30 h", "result": 42.5, "unit": "%"}, {"measurement": "metabolised at 44 h", "setting": "furin; digestion 44 h", "result": 52.7, "unit": "%"}, {"measurement": "metabolised at 53 h", "setting": "furin; digestion 53 h", "result": 57.4, "unit": "%"}, {"measurement": "metabolised at 65 h", "setting": "furin; digestion 65 h", "result": 61.8, "unit": "%"}, {"measurement": "target peak in mouse blood", "setting": "[1]", "result": "not detected"}]}]}
